In patent US20210214406A1, “AMYLOSPHEROID (ASPD)-LIKE STRUCTURE AND PHARMACEUTICAL COMPOSITION” (TAO HEALTH LIFE PHARMA CO., LTD., priority 2016, published 2021):

Assays:
old cynomolgus monkey = assay: Subcutaneous immunization of old cynomolgus monkey with ASPD; format: in vivo
[1] = test system: New Zealand white rabbits; assay: Immunogenicity of synthetic ASPD in rabbits (serum dot blot); format: in vivo, rabbit; settings: rabbits immunized six times with 100 μg; Freund's adjuvant, aluminum hydroxide adjuvant, or no adjuvant
Procedure: New Zealand white rabbits (3 per each condition) were immunized six times with 100 μg of synthetic ASPD using Freund's adjuvant, aluminum hydroxide adjuvant, and no adjuvant. Thereafter, the whole blood was collected and the reactivity to the synthetic ASPD in serum was evaluated by dot blot.

[2] = Storage stability at −80° C. (calibration curve slope in sandwich ELISA with two ASPD-specific antibodies); format: physicochemical; settings: stored at −80° C. for 0 month, 3 months, and 6 months
Procedure: A cell secreted-type ASPD structure obtained by expressing hAPP695-sw-G33I of Test Example 14 was stored at −80° C. for 0 month, 3 months, and 6 months. The samples thus obtained were subjected to measurement performed with a sandwich ELISA using two types of ASPD-specific antibodies (neutralizing antibodies) to prepare a calibration curve.

[3] = target: anti-ASPD polyclonal antibody (rpASD1); assay: Dissociation constant with rpASD1 antibody by surface plasmon resonance; format: binding, rabbit; settings: ASPD immobilized as ligand, rpASD1 as analyte, SPR; result in words

## synthetic ASPD: in vitro synthesized spherical Aß assembly produced by slowly stirring a liquid containing wild type Aß1-42
Old cynomolgus monkey
  brain glucose metabolism (neural activity): increased
[1]
  reactivity to the synthetic ASPD in serum (dot blot): sufficient reactivity was obtained in all the rabbits even without using adjuvant
[2]
  storage stability (slope of primary regression line of ELISA calibration curve): low storage stability
[3]
  dissociation constant (KD) / reactivity to rpASD1: equivalent
